The source of these data is patent US9856534B2, “Selecting use of proteasome inhibitors based on NF-κB2 sequence” (Emory University, priority 2011, dated 2018).

Assay type in all cases: cell-based
One assay has as its system KMS11. In words: Bortezomib sensitivity of MM cell line KMS11.
The next assay concerns RPMI. Kind of assay: Bortezomib sensitivity of MM cell line RPMI.
Assay [1] deals with OPM and KMS11 multiple myeloma cell lines. In words: Live cell count (Yo-pro-1 iodide/PI negative) in MM cell lines stably expressing NF-κB2 constructs, treated with bortezomib. Particulars: titrating doses, 24 hours; live cells. How it is done: A) Two multiple myeloma cell lines, OPM and KMS11, stably expressing the full length NF-κB2 (p100), NF-κB2-ankyrin domains, NF-κB2-death domain were generated using a pLenti6.2/V5-DEST lentivirus. Cells were then treated at titrating doses of bortezomib. After 24 hours the cells were harvested and stained with Yo-pro-1 iodide and propidium Iodide (PI, both from Invitrogen, Grand Island, N.Y.). Live cells were measured using a ImageXpress 5000A Automated Acquisition and Analysis System (Molecular Devices, Sunnyvale, Calif.), quantitating for Yo-pro-1 iodide and PI negative cells. B) OPM1 and RPMI cells stably expressing NF-κB2 (p100), NF-κB2-ankyrin domains or control vector (LacZ) were treated with 10 nM of bortezomib for 24 hours. Cells were harvested and Western blot was performed to assay for caspase 9, cleaved caspase 9 and 3 and actin.
For apoptosis studies, 10^4 cells were treated with titrating doses of doxorubicin (doses: […], Sigma) or rituximab (titrating doses: 1.5, 2.5, 5, 10 and 20 μg/mL, Biogen Idec Inc). Twenty four hours later cells were stained with Yo-pro-1 and Propidium Iodide (Invitrogen). Live cells were measured using a ImageXpress 5000A Automated Acquisition and Analysis System (Molecular Devices, Sunnyvale, Calif.), quantitating for Yo-pro-1 or PI negative cells.
Sequences of NF-κB2-shRNA are known. […]

The subject of assay [2] is Daudi and Raji lymphoma cell lines. In words: Apoptosis by flow cytometry (Annexin V) in lymphoma cell lines expressing p100 siRNA, treated with bortezomib. How it is done:
(A) Two lymphoma cell lines, Daudi and Raji, expressing a p100 or a p105 siRNA were treated with titrating doses of bortezomib for 24 hours. […] Expression of p100 siRNA in two lymphoma cell lines, Daudi and Raji, reduce the protein levels of cleaved caspase 3 and 9. Western blot of Daudi and Raji cell lines expression p100 siRNA or luciferase were performed after 24 hours of treatment with titrating does of bortezomib.
Sequences of NF-κB2-shRNA are known. The sense shRNA oligonucleotide probes were as follows: p100, […] (SEQ ID NO: 12). Luciferase (Luc) shRNA plasmid was provided by S. Stewart. Short interfering hairpin RNA were expressed under U6 human promoter and were generated using PLKopuro.1. NF-κB2, NF-κB2-ankirin repeats region, NF-κB2-death domain and LcZ (control) were expressed under a CMV promoter and generated using a pLenti6/V5-DEST (Invitrogen Life Technologies). Recombinant lentiviruses were generated in 293T cells, for infection of all MM cell lines. Stable cell lines expressing shRNAs or the protein of interest were obtained after selecting cells with 2 μg/mL puromycin or 10 μg/mL, respectively. Cells were used for experiments two weeks after infection.
(A flow cytometer gives signals particle by particle.)

For another assay, the system named is NF-κB. Kind of assay: NF-κB-luciferase reporter assay. Particulars: Daudi and SC lymphoma cell lines; titrating doses, 24 hours. How it is done:
Daudi and SC cell lines were transfected with a NF-κB-luciferase reporter construct (1 μg of DNA). Twenty four hours post-transfection, cells were treated with titrating doses of bortezomib. After 24 hours of treatment, cells were harvested and lysed with RIPA buffer. Twenty microliters of the lysate were mixed with Luciferase assay substrate (Promega, Madison, Wis.) followed by Stop & Glo reagent. Luciferase activity was then measured in a luminometer.
In general terms: A reporter such as luciferase makes a cellular process visible.

On to `CC(C)C[C@H](NC(=O)[C@H](Cc1ccccc1)NC(=O)c1cnccn1)B(O)O` [bortezomib], for which the “bortezomib sensitivity of cell line” value in the assay with KMS11 and in the assay on RPMI was “resistant” throughout. The “sensitivity to bortezomib on expression of p100 (NF-κB2), NF-κB2-ankyrin domains and NF-κB2-death domain” value in assay [1] is “restores sensitivity”. Also, the “bortezomib sensitivity of lymphoma cells” value in assay [2] is on record as “sensitive”. In addition, the “bortezomib-induced apoptosis on p100 siRNA expression” value in assay [2] (titrating doses, 24 hours, Annexin V) is listed as “reduces”. Besides, in the assay with NF-κB, the “effect on NF-kB luciferase reporter activity” value was “NF-kB inhibitory effects”.
